Measured values from patent US6528545B1, “Preparations comprising a fluorocarbon or highly fluorinated compound and a lipophilic/fluorophilic organic compound, and their uses” (priority 1991, dated 2003).

Tests used:
[1] = Facilitation of emulsification of perfluorooctyl bromide: fine particles versus number of microfluidizer passes; assay type: physicochemical; conditions: perfluorooctyl bromide/lecithin emulsion, fine particles d<0,12 μm (FIG. 9)
Protocol: The compounds used in the methods of the invention facilitate the formation of the emulsion and lead to emulsions with fine particle size after a reduced number of passes or a reduced amount of energy. When the compound F8H8E of the invention is added to perfluorooctyl bromide/lecithin emulsion, 30% of fine particles are obtained after 10 passes. By comparison, the reference emulsion without the compounds of the invention requires 20 passes to obtain the same percentage of fine particles (FIG. 9).
The protocol described in Example 1 was used. The average particle size was measured during microfluidization after 1, 2, 3, 4, 5, 7 and 10 passes. The percentage of fine particles (d<0,12 μm) and of coarse particle (d>0,6 μm) was evaluated.
The same protocol as for reference emulsion E was used but for the addition of (F8H8E) as described in example 2.

[2] = Particle size and ageing stability of perfluorooctyl bromide/lecithin emulsions (photosedimentation); assay type: physicochemical; conditions: 90% w/v emulsion of perfluorooctyl bromide
Protocol: 32 g of egg-yolk lecithin and a mixture of salts whose composition is shown in detail in Table I was dispersed with Ultra Turrax under nitrogen (24000 t/min, 10 min) in 393 mL of injectable water. Perfluorooctyl bromide (PFOB, Perflubron®) (375 mL) was added slowly to this dispersion under nitrogen. The mixture was dispersed for 10 mn at 30-40° C. The coarse emulsion obtained was passed under nitrogen through a microfluidizer (M110F). After 10 passes under a pressure of 12000 psi in the chambers cooled to 35° C., the emulsion was recovered, filled in flasks then sterilized at 121° C. for 15 mn. The ageing was monitored at 5,25 and 40° C. (Table II and FIG. 1) and the average size of the particles measured by photosedimentation.
32 g of egg-yolk lecithin and a mixture of salts of the above composition (Table I) was dispersed under nitrogen using an Ultra Turrax T50 (24000 t/min, 10 min) in 379 mL of injectable water at 30-40° C. F6H8E (14.3 mL) was slowly added to this dispersion, which was stirred for 2 min. Perfluorooctyl bromide (375 mL) was then slowly added. The whole was emulsified for 10 min at 24000 t/min at 30-40° C. The coarse emulsion obtained was run under nitrogen through the microfluidizer and after 10 passes (12000 psi, 35° C.) the emulsion was filled in vials, sterilized and stored at 5,25 and 40° C. (Table II and FIG. 1). […]
The same protocol described in the example of Reference A was used but for 16 g of egg-yolk lecithin. The aging was monitored at 40° C. (Table II and FIG. 4).
The protocol described in example 1 was used with 385 mL of water, 8.38 mL of F8H8E, 16 g of lecithin and 375 mL of perfluorooctyl bromide. After microfluidization, the emulsion was sterilized and stored at 40° C. (Table II and FIG. 4). EXAMPLE 5 […]
The same protocol described in example of reference A was used but for 8 g of egg-yolk lecithin. The aging was monitored at 40° C. (Table II and FIG. 6 ) and the average size of the particles was measured by photosedimentation.
The protocol described in example 1 was used with 382 mL of water, 4,19 mL of F8H8E, 8 g of lecithin and 375 mL of perfluorooctyl bromide. After microfluidization the emulsion was sterilized and stored at 40° C. (Table II and FIG. 6).

[3] = cited from earlier work

Compound | number of passes to obtain 30% of fine particles [1] [passes] | particle size ([2]; 0.1% w/v EYP and an equimolar amount of F8H8E) | particle size ([2]; 0.2% w/v of EYP and an equimolar amount of F8H8E) | particle size ([2]; 1% w/v of EYP and 0.7% w/v of F8H8E (FIG. 6)) | particle size ([2]; 2% w/v of EYP and 1.4% w/v of F8H8E (FIG. 4)) | half retention time in liver (comparison value) [3] [days]
CCCCCCCCC=CC(F)(F)C(F)(F)C(F)(F)C(F)(F)C(F)(F)C(F)(F)C(F)(F)C(F)(F)F [Example F8H8E, C8F17CH═CHC8H17] | 10 | about 2.75 μm | about 1.5 μm | about 0.38 μm | about 0.23 μm | 
FC(F)(F)C(F)(F)C(F)(F)N(C(F)(F)C(F)(F)C(F)(F)F)C(F)(F)C(F)(F)C(F)(F)F [perfluorotripropylamine] |  |  |  |  |  | 65
